“And” between values parts separate entries of the source, which are not always exact repeats. Equal values may be shown once. Read-outs that look alike come from different tables or passages of the source.
Key:
ob/ob mice = assay: Effect of compounds on food intake in ob/ob mice (15 h food consumption, s.c. minipump infusion); type: in vivo, mouse; settings: for Food intake, % of basal level, Mean: 15 h food consumption; for Inhibition (%) Based on basal (food intake): relative to vehicle
Procedure: Obese (ob/ob) mouse is selected as the primary animal model for screening as this mutant mouse consumes high amounts of food resulting in a high signal to noise ratio. To further substantiate and compare efficacy data, the effect of the compounds on food consumption is also studied in wild type (C57BL/6J) mice. The amount of food consumed during 15 hours of infusion of compounds is recorded.
Male mice (obese C57BL/6JBom-Lep^ob and lean wild-type C57B1/6JBom; Bomholtsgaard, Denmark) 8-9 weeks with an average body weight of 50 g (obese) and 25 g (lean) are used in all the studies. The animals are housed singly in cages at 23±1° C., 40-60 % humidity and have free access to water and standard laboratory chow. The 12/12-h light/dark cycle is set to lights off at 5 p.m. The animals are conditioned for at least one week before start of study.
The test compounds are dissolved in solvents suitable for each specific compound such as cyclodextrin, cyclodextrin/methane sulfonic acid, polyethylene glycol/methane sulfonic acid, or saline. Fresh solutions are made for each study. […] The purity of the test compounds is of analytical grade.
(§1) The animals are weighed at the start of the study and randomized based on body weight. Alzet osmotic minipumps (Model 2001D; infusion rate 8 μl/h) are used and loaded essentially as recommended by the Alzet technical information manual (Alza Scientific Products, 1997; Teeuwes and Yam, 1976). Continuous subcutaneous infusion with 24 hours duration is used. The minipumps are either filled with different concentrations of test compounds dissolved in vehicle or with only vehicle solution and maintained in vehicle pre-warmed to 37° C. (approx. 1 h). The minipumps are implanted subcutaneously in the neck/back region under short acting anesthesia (metofane/enflurane). This surgical procedure lasts approximately 5 min. It takes about 3 h to reach steady state delivery of the compound.
(§2) The weights of the food pellets are measured at 5 p.m. and at […]. for two days before (baseline) and one day after the implantation of the osmotic minipumps. The weighing is performed with a computer assisted Mettler Toledo PR 5002 balance. Occasional spillage is corrected for. At the end of the study the animals are killed by neck dislocation and trunk blood sampled for later analysis of plasma drug concentrations.
Food consumption for 15 hours is measured for the three consecutive days and the percentage of basal level values is derived for each animal from the day before and after treatment. The values are expressed as mean±SD and mean±SEM from eight animals per dose group. Statistical evaluation is performed by Kruskal-Wallis one-way ANOVA using the per cent basal values. If statistical significance is reached at the level of p<0.05, Mann-Whitney U-test for statistical comparison between control and treatment groups is performed.

[1] = Determination of plasma concentration at steady state (Css, tot) in ob/ob mice; type: in vivo, mouse; settings: continuous s.c. infusion, read-out: Css, tot (total plasma exposure at steady state)
Procedure: as §1, §2
The plasma sample proteins are precipitated with methanol, centrifuged, and the supernatant is transferred to HPLC vials and injected into the liquid chromatography/mass spectrometric system. The mass spectrometer is set for electrospray positive ion mode and Multiple Reaction Monitoring.
A linear regression analysis of the standards forced through the origin is used to calculate the concentrations of the unknown samples.

[2] = nominal 10 mg/kg/day s.c. infusion
[3] = nominal 30 mg/kg/day s.c. infusion
[4] = nominal 100 mg/kg/day s.c. infusion
[5] = mouse, plasma, subcutaneous, nominal 10 mg/kg/day
[6] = mouse, plasma, subcutaneous, nominal 30 mg/kg/day
[7] = mouse, plasma, subcutaneous, nominal 100 mg/kg/day

Structure (SMILES) | Food intake, % of basal level, Mean (ob/ob mice; [2]) | Food intake, % of basal level, Mean (ob/ob mice; [3]) | Food intake, % of basal level, Mean (ob/ob mice; [4]) | Inhibition (%) Based on basal (food intake) (ob/ob mice; [2]) | Inhibition (%) Based on basal (food intake) (ob/ob mice; [3]) [%] | Inhibition (%) Based on basal (food intake) (ob/ob mice; nominal 30 mg/kg/day s.c. infusion, listed as 5-Chloro-3-methyl-benzo[b]thiophene-2-sulfonic acid (4-[4-methylpiperazin-1-yl]q) [%] | Inhibition (%) Based on basal (food intake) (ob/ob mice; [4]) [%] | Inhibition (%) Based on basal (food intake) (ob/ob mice; nominal 100 mg/kg/day s.c. infusion, listed as 5-Chloro-3-methyl-benzo[b]thiophene-2-sulfonic acid (4-[4-methylpiperazin-1-yl]q) [%] | concentration at 24 h [1, 5] [nM] | concentration at 24 h [1, 6] [nM] | concentration at 24 h [1, 7] [nM] | Inhibition (%) Based on basal (food intake) (ob/ob mice; nominal 30 mg/kg/day s.c. infusion, listed as 4-n-Butyl-N-(4-piperazin-1-yl-quinolin-6-yl)benzenesulfonamide) [%] | Inhibition (%) Based on basal (food intake) (ob/ob mice; nominal 100 mg/kg/day s.c. infusion, listed as 4-n-Butyl-N-(4-piperazin-1-yl-quinolin-6-yl)benzenesulfonamide) [%] | concentration at 24 h ([1]; nominal 10 mg/kg/day)
Cc1c(S(=O)(=O)Nc2ccc3nccc(N4CCN(C)CC4)c3c2)sc2ccc(Cl)cc12 [EXAMPLE 1, 5-chloro-3-methyl-benzo[b]thiophene-2-sulphonic acid (4-[4-methylpiperazin-1-yl]quinolin-6-yl)amide] | 62.5 % of basal level | 49.3 % of basal level | 49.9 % of basal level | 4.9% | 25.0 | 25 | 24.1 | 24 | 1000 | 1620 | 1810 | – | – | –
CCCCc1ccc(S(=O)(=O)Nc2ccc3nccc(N4CCNCC4)c3c2)cc1 [EXAMPLE 2, 4-n-butyl-N-(4-piperazin-1-yl-quinolin-6-yl)benzenesulphonamide] | 61.0 % of basal level | 45.5 % of basal level | 43.6 % of basal level | 6.5% | 30.2 | – | 33.2 | – | 370 | 940 | 1290 | 30 | 33 | –
Clc1cccc(N2CCNCC2)c1 [mCCP, m-chlorophenylpiperazine, reference compound] | 31.2 % of basal level and 39.4 % of basal level | – | – | 52.5% and 39.6% | – | – | – | – | – | – | – | – | – | 610 nM and 780 nM

— US20030166663A1, “Use” (priority 2001, published 2003)
